The structures appear in SMILES notation. Converted amounts (≈) assume the structure as drawn.

The MIC is the lowest concentration found to suppress growth. Read a low MIC as a more susceptible organism.

What all share (assay type): functional
In one test the test system is Bacillus subtilis. The test is described as follows: Antibacterial activity against Bacillus subtilis by microtiter plate assay.
The test system of test [1] is Mycolicibacterium smegmatis. Kind of test: Antibacterial activity against Mycobacterium smegmatis by microtiter plate assay.
The subject of another test is Staphylococcus aureus. The test is described as follows: Antibacterial activity against Staphylococcus aureus by microtiter plate assay.
The subject of another test is Candida albicans. The test is described as follows: […] activity against Candida albicans by microtiter plate assay.

For the compound `COc1c2ccccc2nc2occc12` [DICTAMNINE], the MIC (with Bacillus subtilis; in test [1]) was 100 µg/mL (≈ 502 µM) each time.
In the case of `Cn1c2ccccc2c(=O)c2c(O)cc3c(c21)CC(C(C)(O)CCl)O3` (configuration not stated) [ISOGRAVACRIDONECHLORINE], the MIC (against Bacillus subtilis; in test [1]) was 100 µg/mL (≈ 278 µM) each time.
Consider `CC(O)CCCCc1ccc2c(c1)OCO2` (configuration not stated) [MOSKACHAN C], for which the minimum inhibitory concentration (MIC) (with Bacillus subtilis; in test [1]) was 100 µg/mL (≈ 450 µM) each time.
Consider `COc1ccc2nc3occc3c(OC)c2c1` [PTELEINE], for which the minimal inhibitory concentration (MIC) (in the test with Staphylococcus aureus; in the test on Bacillus subtilis; in test [1]; against Candida albicans) was 50 µg/mL (≈ 218 µM) each time.
With `COc1ccc2c(OC)c3ccoc3nc2c1OC` [SKIMMIANINE], the MIC (against Bacillus subtilis; in test [1]) was 100 µg/mL (≈ 386 µM) throughout.

Source of the values: ChEMBL document CHEMBL1155557, “New quinoline alkaloids from Ruta chalepensis” (2000).
